Experimental findings from publication PMC3691600, “Conversion of fatty aldehydes into alk (a/e)nes by in vitro reconstituted cyanobacterial aldehyde-deformylating oxygenase with the cognate electron transfer system” (Biotechnology for Biofuels, 2013) are described below.

This assay deals with FNR (SynPcc7942_0978) (Synechococcus elongatus, UniProt Q31PL1). In words: UV/vis absorption spectrum of purified enzyme. In kind it is binding. Conditions: noncovalently bound; as purified; flavin identity inferred from spectrum and FNR homology.
FNR (SynPcc7942_0978), sequence (Q31PL1 1-403): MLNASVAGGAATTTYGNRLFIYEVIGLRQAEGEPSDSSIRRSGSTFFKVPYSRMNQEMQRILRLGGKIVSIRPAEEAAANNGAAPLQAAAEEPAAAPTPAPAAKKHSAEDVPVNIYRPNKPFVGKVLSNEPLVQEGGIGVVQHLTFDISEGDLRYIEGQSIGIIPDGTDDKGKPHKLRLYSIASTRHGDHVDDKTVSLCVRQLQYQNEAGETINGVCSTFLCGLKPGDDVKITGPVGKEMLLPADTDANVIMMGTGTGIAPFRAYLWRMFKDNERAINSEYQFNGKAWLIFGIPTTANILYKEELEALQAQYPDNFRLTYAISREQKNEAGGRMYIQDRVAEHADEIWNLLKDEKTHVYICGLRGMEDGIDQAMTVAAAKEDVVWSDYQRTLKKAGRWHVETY

Regarding `Cc1cc2nc3c(=O)[nH]c(=O)nc-3n(C[C@H](O)[C@H](O)[C@H](O)COP(=O)(O)OP(=O)(O)OC[C@H]3O[C@@H](n4cnc5c(N)ncnc54)[C@H](O)[C@@H]3O)c2cc1C` [FAD], the “UV/vis absorption spectrum of purified enzyme” value is reported as “demonstrating that FNR is certainly a flavoprotein”.
